# According to patent US8183263B2 (priority 2007, dated 2012):
# Tested on: HCV replicon
# Assay: HCV replicon replication assay (NPT level by captured ELISA)
# Assay type: cell-based
# Settings: Hepatitis C virus, 72 h; Huh-7 HCV replicon-containing cells, three days incubation; read-out: Activity (inhibition of HCV replicon replication)
# Method in brief: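 Huh-7 cells carrying HCV subgenomic replicon (NS3–NS5B, neo reporter) treated 3 days at 37 °C with 6 concentrations from 10 to 0.03 micromolar in G418-free medium, equal DMSO across wells. Replication measured on day four as NPTII level by in-cell captured ELISA on fixed cells; interferon alpha as positive control.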
row,Compound,EC50 [nM]
1,"C/C=N/N(c1ccc(OCCCCCCCC)c(C(F)(F)F)c1)c1nc(-c2cccnc2)cs1 [Cmp 33, (E)-2-(2-ethylidene-1-(4-(octyloxy)-3-(trifluoromethyl)phenyl)hydrazinyl)-4-(pyridin-3-yl)thiazole]",< 1000
2,"CN(C)c1ccc(CCCCOc2ccc(Nc3nc(-c4cccnc4)cs3)cc2C(F)(F)F)cc1 [Cmp 89, N-(4-(4-(4-(dimethylamino)phenyl)butoxy)-3-(trifluoromethyl)phenyl)-4-(pyridin-3-yl)thiazol-2-amine]",< 1000
3,"CCCCCCCCc1cc2cc(Nc3nc(-c4cccnc4)c(F)s3)ccc2o1 [Cmp 128, 5-fluoro-N-(2-octylbenzofuran-5-yl)-4-(pyridin-3-yl)thiazol-2-amine]",< 1000
4,"CCCCCCCCOc1ccc(Nc2nc(-c3cccnc3)cs2)cc1C(=O)O [Cmp 155, 2-(octyloxy)-5-(4-(pyridin-3-yl)thiazol-2-ylamino)benzoic acid]",> 10000
5,"CCCCCCCCOc1cc(Nc2nc(-c3cnc(OC)nc3)cs2)ccc1C [Cmp 46, 4-(2-methoxypyrimidin-5-yl)-N-(4-methyl-3-(octyloxy)phenyl)thiazol-2-amine]",< 1000
6,"Cc1ccc(OCCCc2ccc(Nc3nc(-c4cccnc4)c(F)s3)cc2C(F)(F)F)cc1 [Cmp 127, 5-fluoro-4-(pyridin-3-yl)-N-(4-(3-(p-tolyloxy)propyl)-3-(trifluoromethyl)phenyl)thiazol-2-amine]",< 1000
7,"Cc1ccccc1CCCCOc1ccc(Nc2nc(-c3cccnc3)cs2)cc1C(F)(F)F [Cmp 22, 4-(pyridin-3-yl)-N-(4-(4-o-tolylbutoxy)-3-(trifluoromethyl)phenyl)thiazol-2-amine]",< 1000
8,"CCCCCCCCOc1ccc(Nc2nc(-c3cccnc3)c(CN(C)C)s2)cc1C(F)(F)F [Cmp 157, 5-((dimethylamino)methyl)-N-(4-(octyloxy)-3-(trifluoromethyl)phenyl)-4-(pyridin-3-yl)thiazol-2-amine]",1000 to 10000
9,"CCCCCCCCc1ccc(Nc2nc(-c3cccnc3)c(F)s2)cc1C(F)(F)F [Cmp 35, 5-fluoro-N-(4-octyl-3-(trifluoromethyl)phenyl)-4-(pyridin-3-yl)thiazol-2-amine]",< 1000
10,"COc1ncc(-c2csc(Nc3ccc(CCCCCc4ccc(C)cc4)c(C(F)(F)F)c3)n2)cn1 [Cmp 74, 4-(2-methoxypyrimidin-5-yl)-N-(4-(5-p-tolylpentyl)-3-(trifluoromethyl)phenyl)thiazol-2-amine]",< 1000
11,"CCCCCc1nc2cc(Nc3nc(-c4cccnc4)c(F)s3)ccc2o1 [Cmp 65, N-(5-fluoro-4-(pyridin-3-yl)thiazol-2-yl)-2-pentylbenzo[d]oxazol-5-amine]",< 1000
12,"CCCCCCCCOc1ccc(Nc2nc(-c3cccnc3)c(F)s2)cc1 [Cmp 141, 5-fluoro-N-(4-(octyloxy)phenyl)-4-(pyridin-3-yl)thiazol-2-amine]",< 1000
13,"Fc1sc(Nc2ccc(OCCCCC3CCCC3)c(C(F)(F)F)c2)nc1-c1cccnc1 [Cmp 190, N-(4-(4-cyclopentylbutoxy)-3-(trifluoromethyl)phenyl)-5-fluoro-4-(pyridin-3-yl)thiazol-2-amine]",< 1000
14,"CCCCCCCCOc1cc(Nc2nc(-c3cccnc3)cs2)ccc1C(F)(F)F [Cmp 68, N-(3-(octyloxy)-4-(trifluoromethyl)phenyl)-4-(pyridin-3-yl)thiazol-2-amine]",< 1000
15,"CCCCCCCCOc1ccc(Nc2nc(-c3ccc(F)nc3)c(F)s2)cc1C(F)(F)F [Cmp 175, 5-fluoro-4-(6-fluoropyridin-3-yl)-N-(4-(octyloxy)-3-(trifluoromethyl)phenyl)thiazol-2-amine]",< 1000
16,"Fc1ccc(CCCCCc2ccc(Nc3nc(-c4cccnc4)c(F)s3)cc2C(F)(F)F)cc1 [Cmp 217, 5-fluoro-N-(4-(5-(4-fluorophenyl)pentyl)-3-(trifluoromethyl)phenyl)-4-(pyridin-3-yl)thiazol-2-amine]",< 1000
17,"CCCCCCCCc1ccc(Nc2nc(-c3ccncc3)c(F)s2)cc1C(F)(F)F [Cmp 167, 5-fluoro-N-(4-octyl-3-(trifluoromethyl)phenyl)-4-(pyridin-4-yl)thiazol-2-amine]",< 1000
18,"Cc1cccc(OCCCc2ccc(Nc3nc(-c4cccnc4)c(F)s3)cc2C(F)(F)F)c1 [Cmp 92, 5-fluoro-4-(pyridin-3-yl)-N-(4-(3-(m-tolyloxy)propyl)-3-(trifluoromethyl)phenyl)thiazol-2-amine]",< 1000
19,"Fc1ccc(CCCCCc2ccc(Nc3nc(-c4cccnc4)cs3)cc2C(F)(F)F)cc1 [Cmp 216, N-(4-(5-(4-fluorophenyl)pentyl)-3-(trifluoromethyl)phenyl)-4-(pyridin-3-yl)thiazol-2-amine]",< 1000
20,"CCCCCCCCOc1ccc(Nc2ncc(Sc3ccncc3)s2)cc1C(F)(F)F [Cmp 146, N-(4-(octyloxy)-3-(trifluoromethyl)phenyl)-5-(pyridin-4-ylthio)thiazol-2-amine]",1000 to 10000
21,Cc1ccc(CCCCOc2cc(Nc3nc(-c4cccnc4)c(F)s3)ccc2C(F)(F)F)cc1 [Cmp 126],< 1000
22,"CCCCCc1nc2cc(Nc3nc(-c4cnc(OC)nc4)c(F)s3)ccc2o1 [Cmp 56, N-(5-fluoro-4-(2-methoxypyrimidin-5-yl)thiazol-2-yl)-2-pentylbenzo[d]oxazol-5-amine]",< 1000
23,"Cc1ccc(Nc2nc(-c3ccc(F)cc3)c(F)s2)cc1OCC1CCCCC1 [Cmp 61, N-(3-(cyclohexylmethoxy)-4-methylphenyl)-5-fluoro-4-(4-fluorophenyl)thiazol-2-amine]",< 1000
24,"CCCCCCCCc1c(F)cc(Nc2nc(-c3cccnc3)c(F)s2)cc1F [Cmp 138, N-(3,5-difluoro-4-octylphenyl)-5-fluoro-4-(pyridin-3-yl)thiazol-2-amine]",< 1000
25,"CCCCCOc1cc(Nc2nc(-c3cnc(OC)nc3)c(F)s2)ccc1C(F)(F)F [Cmp 77, 5-fluoro-4-(2-methoxypyrimidin-5-yl)-N-(3-(pentyloxy)-4-(trifluoromethyl)phenyl)thiazol-2-amine]",< 1000
26,"CCCCCCCCc1cc2cc(Nc3nc(-c4ccc5nncn5c4)cs3)ccc2o1 [Cmp 179, 4-([1,2,4]triazolo[4,3-a]pyridin-6-yl)-N-(2-octylbenzofuran-5-yl)thiazol-2-amine]",< 1000
27,"CCCCCCCCc1ccc(Nc2nc(-c3ccc(O)c(C(N)=O)c3)c(Cl)s2)cc1C(F)(F)F [Cmp 185, 5-(5-chloro-2-(4-octyl-3-(trifluoromethyl)phenylamino)thiazol-4-yl)-2-hydroxybenzamide]",< 1000
28,"Fc1ccc(-c2nc(Nc3ccc(OCCCC4CCCC4)c(C(F)(F)F)c3)sc2F)cn1 [Cmp 173, N-(4-(3-cyclopentylpropoxy)-3-(trifluoromethyl)phenyl)-5-fluoro-4-(6-fluoropyridin-3-yl)thiazol-2-amine]",< 1000
29,"CCCCCCCCc1ccc(Nc2nc(-c3cncc(C#N)c3)c(F)s2)cc1C(F)(F)F [Cmp 182, 5-(5-fluoro-2-(4-octyl-3-(trifluoromethyl)phenylamino)thiazol-4-yl)nicotinonitrile]",< 1000
30,"CCCCCCCCc1ccc(Nc2nc(-c3ccc(O)nc3)c(F)s2)cc1C(F)(F)F [Cmp 101, 5-(5-fluoro-2-(4-octyl-3-(trifluoromethyl)phenylamino)thiazol-4-yl)pyridin-2-ol]",< 1000
